Assay results: US12415811B2, “1,2,3',5'-tetrahydro-2'h-spiro[indole-3,1'-pyrrolo[3,4-C]pyrrole]-2,3'-dione compounds as therapeutic agents activating TP53” (ADAMED PHARMA, S.A., priority 2018, dated 2025)
Like-named read-outs stand apart in the source and are kept apart here.

Assays:
[1] = In vitro intrinsic clearance in murine microsomes; format: in vitro ADME; details: mouse, pH 7.4; murine microsomes 0.5 mg/ml, 1 μM compound, 37° C., up to 1 hour; read-out: murine MS Clint
Protocol: (§1) Metabolic stability of the compounds of the invention has been assessed by measurement of the in vitro intrinsic clearance in murine and human microsomes.
(§2) 10 mM stock solutions of markers and test compounds were prepared in DMSO. These were diluted 100-fold in 91:9 MeCN:DMSO to obtain a 100 μM assay stock. 10 mM NADPH was made up in 0.1M phosphate buffer (pH7.4). Microsomes were thawed in a waterbath at 37° C., and diluted to give a final assay concentration of 0.5 mg/ml.
(§3) 100 μM assay stocks were added to give a final concentration of 1 μM to incubation tubes containing buffer and NADPH (final assay concentration is 1 mM). Incubation tubes and microsomes were pre-warmed at 37° C. for 3 minutes. The microsomes were then added to the incubation tubes which were kept at 37° C. and shaken using the orbital shaker for the duration of the assay. Samples were taken at 6 pre-determined time points up to 1 hour and transferred to the prepared quench tubes containing an appropriate solvent with internal standard.
(§4) Quenched samples are mixed thoroughly and protein precipitated at −20° C. for a minimum of 12 hours. Samples were then centrifuged at 4° C. Supernatants were transferred to a fresh 96 well plate, compatible with the auto-sampler. The plate was sealed with a pre-slit silicone mat and analyzed by LC-MS/MS.

[2] = tested on: SJSA-1 osteosarcoma cell line; experiment: Cell viability MTT assay; format: cell-based; details: Homo sapiens, 72 h incubation, average of 2-5 experiments
Protocol: The effect of the invented p53-Mdm2 inhibitors on cell viability has been assessed using MTT assay. It is a colorimetric assay that measures conversion of tetrazolium ring of the soluble yellow dye (MTT) into insoluble purple formazan. This process is catalyzed solely in mitochondrial dehydrogenases of living cells.
Cells were seeded on 96-well plates and then treated with successive dilutions of tested compounds. After 72 h incubation, MTT was added to the final concentration 0.5 mg/ml. The cells were further incubated for the next 4 h. Then the solution was drained and the remaining formazan crystals were dissolved in 100 μl DMSO. […] All the MTT experiments were independently repeated 2-5 times. Dose-dependent binding curves and IC50 values were calculated using GraphPad Prism 5. The presented IC50 values represent the average value from all the performed experiments (Table 3).

[3] = In vitro intrinsic clearance in human microsomes; format: in vitro ADME; details: pH 7.4; human microsomes 0.5 mg/ml, 1 μM compound, 37° C., up to 1 hour; read-out: human MS Clint
Protocol: as §1, §2, §3, §4

SJSA-1 xenograft = experiment: In vivo efficacy in the SJSA-1 xenograft model in mice; details: Mus musculus, po, 12.5 mg/kg p.o., q1d, SJSA-1 xenograft in Crl:CD-1-Foxn1nu mice, mean
Protocol: The experiment was conducted on female mice from the Crl:CD-1-Foxn1nu strain. Mice were inoculated subcutaneously in the right flank with cancer cell line SJSA-1 in the amount of 3×10^6 cells suspended in 100 μl HBSS: Matrigel matrix in a 3:1 ratio per mouse. On the 17th day after inoculation mice were divided into groups, so that in each group the mean tumor volume was similar and averaged around 200 mm^3. Experiment groups were selected, each consisting of 8 mice: Control NaCl 0.9% and compounds. Compounds 1-11 were dissolved in 56.60% PEG 400, 9.43% Cremophor RH40, 9.43% ETOH, 18.87% Labrafil M1944CS, 5.67% DMSO. For Compound 107 from WO2015/189799, group of 7 mice was used, and it was dissolved in 15% PEG400, 10% Cremophor EL, 75% H2O.
[…] During the course of experiment mice were weighed before each administration, —twice/thrice a week. Animal welfare was monitored daily. No significant difference in body weight or welfare was observed between experiment groups during and at the end of study.
Change in tumor volume was monitored twice/thrice a week starting from the first day of administration. Tumor volume was calculated based on its length and width measured with an electronic calipers: V[mm^3]=d^2×D/2
The tumor volume in the groups was measured up to 101 days after inoculation (72 days after last administration). Results of the experiment were expressed as mean values of tumor growth inhibition (TGI) ±SEM (Table 4). Tumor growth inhibition was calculated using the following formula TGI [%]=[100−[…]]
where C— mean tumor size in control group, T—mean tumor size in treated group. All calculations and graphs were performed using GraphPad Prism 5 software.

p53-Mdm2 interaction = p53-Mdm2 interaction (Homo sapiens (Human), UniProt Q00987); experiment: Fluorescence polarization (FP) binding assay, inhibition of p53-Mdm2 interaction; details: 75 nM Mdm2 (amino acids 1-111), 10 nM FAM-labelled p53 peptide; IC50 transformed to Ki using Kenakin equation
Chain of p53-Mdm2 interaction (Q00987 1-111): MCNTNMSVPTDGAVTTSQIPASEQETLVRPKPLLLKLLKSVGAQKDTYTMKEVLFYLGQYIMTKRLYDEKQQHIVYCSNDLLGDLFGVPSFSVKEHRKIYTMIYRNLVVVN
Protocol: The inhibition of p53-Mdm2 interaction was measured using a fluorescence polarization (FP) binding assay. FP measures the rotational movement of molecules in a homogenous suspension. For this assay, N-terminal domain of Mdm2 protein (amino acids 1-111) is combined with a fluorescein-labeled (FAM) peptide derived from p53 trans-activation domain (Sequence: 5-FAM-TSFAEYWNLLSP). Upon excitation of the fluorescent ligand with linearly polarized light the peptide emits perpendicularly polarized light. If the peptide is bound by Mdm2, rotation will slow down and the perpendicular component will proportionally decrease. In opposition disruption of the peptide-Mdm2 complex due to binding of an inhibitor to the p53 binding site of Mdm2 results in releasing of peptide and decreasing of emitted light polarization.
Fluorescence polarization experiments were read on Biotek Cytation 5 reader with the 470 nm excitation and 520 nm emission filters for fluorescein. The fluorescence polarization was measured in black 96-well plates (Corning, CLS3991) in room temperature. Purity of Mdm2 was controlled at >95%. Reaction buffer was optimized by adding 5 mM DTT and 0.1% zwitterionic detergent CHAPS to reduce effect of nonspecific interactions.
The test was performed by combining successive dilution of compounds diluted in dimethyl sulfoxide (DMSO, 5% final concentration) with 75 nM Mdm2 in reaction buffer (PBS, 0.1% CHAPS, 5 mM DTT (dithiothreitol)). After 15 minutes of incubation in room temperature 10 nM FAM-labelled peptide was added. Final reading was performed after 90 minutes of incubation. Dose-dependent binding curves and IC50 values were calculated using GraphPad Prism5 and next transformed to Ki values using Kenakin equation (Table 2).

[4] = after 7 doses, read-out: TGI P.O. 12.5 mg/kg (7 doses) [%]
[5] = after 12 doses, read-out: TGI P.O. 12.5 mg/kg (12 doses) [%]

Row | microsomal CLint at 1 μM [1] | IC50 [2] | microsomal CLint at 1 μM [3] | Ki (p53-Mdm2 interaction) | SMILES | inhibition in vivo at 12.5 mg/kg (SJSA-1 xenograft; [4]) | inhibition in vivo at 12.5 mg/kg (SJSA-1 xenograft; [5])
1 | < 4 µL/min/mg | 0.16 µM | < 3 µL/min/mg | 1.7 nM | COc1ncc(-n2cc3c(c2C(C)C)[C@@]2(C(=O)Nc4cc(Cl)ccc42)N(c2cc(Cl)ccc2F)C3=O)c(OC)n1 [Compound 2, (3S)-6-chloro-2′-(5-chloro-2-fluorophenyl)-5′-(2,4-dimethoxypyrimidin-5-yl)-6′-(propan-2-yl)-1,2,3′,5′-tetrahydro-2′H-spiro[indole-3,1′-pyrrolo[3,4-c]pyrrole]-2,3′-dione] | 94.4% | 98.9%
2 | < 3 µL/min/mg | 0.32 µM | < 3 µL/min/mg | 1.7 nM | COc1ncc(-n2cc3c(c2C(C)C)[C@@]2(C(=O)Nc4cc(Cl)ccc42)N(c2ccc(F)c(Cl)c2)C3=O)c(OC)n1 [Compound 4, (3S)-6-chloro-2′-(3-chloro-4-fluorophenyl)-5′-(2,4-dimethoxypyrimidin-5-yl)-6′-(propan-2-yl)-1,2,3′,5′-tetrahydro-2′H-spiro[indole-3,1′-pyrrolo[3,4-c]pyrrole]-2,3′-dione] | 94.9% | 99.5%
